# Key:
# Format in all cases: in vivo
# [1] = test system: Plasmopara viticola; assay: Plasmopara test (vine)/protective; conditions: protective spray, active compound concentration 100 ppm, evaluation 6 days after inoculation
# Experimental: Plasmopara Test (Vine)/Protective Solvent: 4.7 parts by weight of acetone Emulsifier: 0.3 part by weight of alkylaryl polyglycol ether To produce a suitable preparation of active compound, 1 part by weight of active compound is mixed with the stated amounts of solvent and emulsifier, and the concentrate is diluted with water to the desired concentration. To test for protective activity, young plants are sprayed with the preparation of active compound. After the spray coating has dried on, the plants are inoculated with an aqueous spore suspension of Plasmopara viticola and then remain in a humidity chamber at 20 to 22° C. and 100% relative atmospheric humidity for 1 day. The plants are then placed in a greenhouse at 21° C. and about 90% atmospheric humidity for 5 days. The plants are then moistened and placed in a humidity chamber for 1 day. Evaluation is carried out 6 days after the inoculation.
# [2] = test system: Uncinula necator; assay: Uncinula test (vine)/protective; conditions: protective spray, evaluation 14 days after inoculation
# Experimental: (§1) Uncinula Test (Vine)/Protective Solvent: 4.7 parts by weight of acetone Emulsifier: 0.3 part by weight of alkylaryl polyglycol ether To produce a suitable preparation of active compound, 1 part by weight of active compound is mixed with the stated amounts of solvent and emulsifier, and the concentrate is diluted with water to the desired concentration. To test for protective activity, young plants are sprayed with the preparation of active compound. After the spray coating has dried on, the plants are dusted with conidia of the fungus Uncinula necator. The plants are then placed in a greenhouse at 23 to 24° C. and a relative atmospheric humidity of about 75%. Evaluation is effected 14 days after the inoculation.
# [3] = test system: Sphaerotheca fuliginea; assay: Sphaerotheca test (cucumber)/protective; conditions: protective spray, active compound concentration 100 ppm, evaluation 10 days after inoculation
# Experimental: as §1, with “Sphaerotheca Test (Cucumber)/Protective” for “Uncinula Test (Vine)/Protective”, “Sphaerotheca Test (Cucumber)/Protective Solvent: 4.7” for “Uncinula Test (Vine)/Protective Solvent: 4.7”, “the fungus Sphaerotheca fuliginea. The plants” for “the fungus Uncinula necator. The plants”, “C. and at a relative” for “C. and a relative”, “Evaluation is carried out 10 days after” for “Evaluation is effected 14 days after”
# [4] = test system: Venturia inaequalis; assay: Venturia test (apple)/protective; conditions: protective spray, active compound concentration 10 ppm, evaluation 12 days after inoculation
# Experimental: Venturia Test (Apple)/Protective Solvent: 4.7 parts by weight of acetone Emulsifier: 0.3 part by weight of alkylaryl polyglycol ether To produce a suitable preparation of active compound, 1 part by weight of active compound is mixed with the stated amounts of solvent and emulsifier, and the concentrate is diluted with water to the desired concentration. To test for protective activity, young plants are sprayed with the preparation of active compound. After the spray coating has dried on, the plants are inoculated with an aqueous conidia suspension of the apple scab causative organism Venturia inaequalis and then left in an incubation cabin at 20° C. and 100% relative atmospheric humidity for 1 day. The plants are then placed in a greenhouse at 20° C. and a relative atmospheric humidity of about 70%. Evaluation is carried out 12 days after the inoculation.
# [5] = test system: Erysiphe graminis f.sp. hordei; assay: Erysiphe test (barley)/protective; conditions: protective spray, application rate 250 g/ha, evaluation 7 days after inoculation
# Experimental: Erysiphe Test (Barley)/Protective Solvent: 10 parts by weight of N-methyl-pyrrolidone Emulsifier: 0.6 part by weight of alkylaryl polyglycol ether To produce a suitable preparation of active compound, 1 part by weight of active compound is mixed with the stated amounts of solvent and emulsifier, and the concentrate is diluted with water to the desired concentration. To test for protective activity, young plants are sprayed with the preparation of active compound at given application rate. After the spray coating has dried on, the plants are dusted with spores of Erysiphe graminis f.sp. hordei. The plants are placed in a greenhouse at a temperature of about 20° C. and a relative atmospheric humidity of about 80%, in order to promote the development of powdery mildew pustules. Evaluation is carried out 7 days after the inoculation.
# [6] = test system: Leptosphaeria nodorum; assay: Leptosphaeria nodorum test (wheat)/protective; conditions: protective spray, application rate 250 g/ha, evaluation 10 days after inoculation
# Experimental: Leptosphaeria nodorun Test (Wheat)/Protective Solvent: 10 parts by weight of N-methyl-pyrrolidone Emulsifier: 0.6 part by weight of alkylaryl polyglycol ether To produce a suitable preparation of active compound, 1 part by weight of active compound is mixed with the stated amounts of solvent and emulsifier, and the concentrate is diluted with water to the desired concentration. To test for protective activity, young plants are sprayed with the preparation of active compound. After the spray coating has dried on, the plants are sprayed with a spore suspension of Leptosphaeria nodorum. The plants remain for 48 hours in an incubation cabin at 20° C. and 100% relative atmospheric humidity. The plants are placed in a greenhouse at a temperature of about 15° C. and a relative atmospheric humidity of about 80%. Evaluation is effected 10 days after the inoculation.
compound,measurement,setting,value
"COC(=O)/C(=C/OCF)c1ccccc1Oc1nc(-c2ccc(Br)cc2)ns1 [Example 2, methyl 2-{2-[3-(4-bromophenyl)-1,2,4-thiadiazol-5-yloxy]-phenyl}-3-fluoromethoxy-acrylate]",Efficacy in % of the untreated control,[1],100%
same,Efficacy,[2]; active compound concentration 10 ppm,100%
same,Efficacy in % of the untreated control,[2]; active compound concentration 25 ppm (table),100%
same,Efficacy in % of the untreated control,[3],100%
same,Efficacy in % of the untreated control,[4],100%
same,Efficacy in % of the untreated control,[5],81%
same,"Efficacy in %, relative to the untreated control",[6],88%

# Source: US6337401B1, “Fluoromethoxyacrylic acid derivatives and their use as pest control agents” (Bayer Aktiengesellschaft, priority 1995, dated 2002)
